# Data published in patent US11458149B1, “TEAD inhibitors and uses thereof” (Ikena Oncology, Inc., priority 2019, dated 2022).
# Columns and labels:
# TEAD = TEAD reporter assay (Hippo Pathway TEAD Reporter - MCF7 cell line, luciferase); type: cell-based, human; details: Homo sapiens, MCF7, TEAD Reporter - MCF7 cells; read-out: TEAD Reporter Assay EC50
# From the text: TEAD inhibition can be assayed using Hippo Pathway TEAD Reporter—MCF7 Cell Line (BPS Bioscience, Catalog #: 60618).
# The TEAD Reporter—MCF7 cell line contains the firefly luciferase gene under the control of TEAD responsive elements stably integrated into the human breast cancer cell line, MCF7. Inside the cells, basal unphosphorylated YAP/TAZ remains in the nucleus and induces the constitutive expression of luciferase reporter. The cell line is validated for the inhibition of the expression of luciferase reporter by the activators of the Hippo pathway.
# • 1) Harvest TEAD Reporter—MCF7 cells from culture in growth medium and seed cells at a density of 35,000 cells per well into white clear-bottom 96-well microplate in 45 μl of assay medium. • 2) Incubate cells at 37° C. in a CO2 incubator for overnight. • 3) Dilute the activators (H2O2 or okadaic acid) stock in assay medium. Add 5 μl of diluted activators to the wells. The final concentration of DMSO in assay medium is 0.1%. • 4) Add 5 μl of assay medium with same concentration of DMSO without activator to control wells. • 5) Add 50 μl of assay medium with DMSO to cell-free control wells (for determining background luminescence). • 6) Set up each treatment in at least triplicate. • 7) Incubate cells at 37° C. in a CO2 incubator for 5-6 hours. • 8) Perform luciferase assay using the ONE-Step™ Luciferase Assay System following the protocol provided: Add 100 μl of ONE-Step™ Luciferase reagent per well and rock at room temperature for ˜15 minutes. Measure luminescence using a luminometer. • 9) Data Analysis: Obtain the background-subtracted luminescence by subtracting the average background luminescence (cell-free control wells) from the luminescence reading of all wells.
# (§1) Certain compounds were tested in TEAD reporter assay, and in H226 and H28. A: EC50<0.1 uM; B: 0.1 uM≤EC50≤0.5 uM; C: EC50>0.5 uM.
# H226 = experiment: Anti-proliferation assay in H226 cells; type: cell-based, human; details: Homo sapiens, NCI-H226, H226 cells; read-out: H226 EC50
# Experimental: as §1
# (§2) Individual cell lines were grown in medium according to supplier instructions and seeded into 96-well plates at a density that ensured logarithmic growth over 72 hours. TEAD inhibitor compounds were administered to cells at a top concentration of 10 μm and subsequently a 10 point 3-fold serial dilution was conducted. After 72 hours, proliferation was quantified using Cell TITERGLO™ (Promega, Inc.) and compared to vehicle control. IC50 and EC50 values were generated using XLFit curve fitting software.
# H28 = experiment: Anti-proliferation assay in H28 cells; type: cell-based; details: Homo sapiens, NCI-H28
# Experimental: as §1, §2
# The effect of isomer 2 of compound I-12 on cell proliferation is dependent on the presence of a Hippo/NF2 mutation. No effect is seen by isomer 2 of compound I-12 on the NF2 wild-type H28 cell line.
# [1] = Mouse pharmacokinetics study; type: in vivo; details: mouse, BALB/c mice, 10 mg/kg oral gavage, 5% DMS/95% PEG400, plasma
# Experimental: Formulated compounds were administered intravenously or orally via gavage to BALB/c mice. Typically, at 0.167, 0.5, 1, 2, 4, 6, 12, and 24 hours post-dose, blood was collected and processed to plasma by centrifugation and stored at −80° C. until analysis. Internal standard was added to each sample prior to protein precipitation with acetonitrile or TCA. The precipitates were filtered through a filter plate and the samples were analyzed by LC/MS/MS. A standard curve was prepared in plasma from typically from 1.0 ng/mL to 3000 ng/mL and processed in the same manner as the samples. Sample analysis was typically performed on a suitable LC/MS/MS system fitted with an analytical UPLC column and compounds eluted from the analytical column with a gradient from 30-95% 0.1% formic acid (v/v) in ACN: 0.1% formic acid (v/v) in water. Mass spectrometric detection of test compound and the internal standard was performed by […] in positive mode. The pharmacokinetics of each compound were analyzed by Phoenix WinNonlin software (Pharsight, St. Louis, Mo.) via noncompartmental analysis. FIG. 4 depicts pharmacokinetic (PK) properties of isomer 1 of compound I-186 following dosing in BALB/c mice.
EC50 (TEAD) [nM],EC50 (H226) [nM],AUC(0-t) [1] [ng·h/mL],Cmax ([1]; read-out: Cmax) [ng/mL],SMILES,EC50 (H28) [nM]
< 100,< 100,–,–,"C=CC(=O)Nc1ccc(Br)c(Nc2cccc(C(F)(F)F)c2)c1 [Compound I-36, N-[4-bromo-3-[3-(trifluoromethyl)anilino]phenyl]prop-2-enamide]",> 500
< 100,< 100,–,–,"C=CC(=O)Nc1ccc(-c2cn(C)cn2)c(Nc2cccc(C(F)(F)F)c2)c1 [Compound I-40, N-[4-(1-methylimidazol-4-yl)-3-[3-(trifluoromethyl)anilino]phenyl]prop-2-enamide]",> 500

# Further lines, the molecule ahead of its results:
SMILES,EC50 (TEAD) [nM],EC50 (H226) [nM],AUC(0-t) [1] [ng·h/mL],Cmax ([1]; read-out: Cmax) [ng/mL],EC50 (H28) [nM]
"C=CC(=O)Nc1ccc(C)c(N(C)c2cccc(C(F)(F)F)c2)c1 [Compound I-35, N-[4-methyl-3-[N-methyl-3-(trifluoromethyl)anilino]phenyl]prop-2-enamide]",< 100,< 100,–,–,> 500
"C=CC(=O)NC1CCN(Cc2ccc(C(F)(F)F)cc2)CC1 [Compound I-46, N-[1-[[4-(Trifluoromethyl)phenyl]methyl]-4-piperidyl]prop-2-enamide]",100 to 500,100 to 500,1140,735,> 500
"C=CC(=O)NC1CCN(Cc2ccccc2C(F)(F)F)CC1 [Compound I-49, N-[1-[[2-(trifluoromethyl)phenyl]methyl]-4-piperidyl]prop-2-enamide]",> 500,> 500,–,–,> 500
"C=CC(=O)NC1CCN(S(=O)(=O)c2ccc(C(F)(F)F)cc2)CC1 [Compound I-50, N-[1-[4-(trifluoromethyl)phenyl]sulfonyl-4-piperidyl]prop-2-enamide]",> 500,> 500,–,–,> 500
